According to patent US20080108697A1, “Device for packaging an oxaliplatin solution” (priority 2001, published 2008):

What was measured:
[1] = plastic material free of PVC in direct contact; period of at least one year; cited from earlier work
[2] = Stability of aqueous oxaliplatin preparations in type I glass bottles under normal conditions (25° C., 60% relative humidity), total impurities by HPLC; format: physicochemical; settings: for Level of impurity 5 years: 2 mg/ml, 50 ml bottle (ratio 0.12); for Level of impurity 5 years / Level of impurity 1 month / Level of impurity 2.5 months / Level of impurity 4 months / Level of impurity 5.5 months / Level of impurity 7 months / Level of impurity 10 months: 25° C./60% RH
Description: To carry out this trial, four series of bottles, consisting of a colorless type I glass, all of cylindrical shape but of different volumes, were used. Table 2 assembles, for each series of bottles, their so-called “useful” capacity, their so-called “brim” capacity, the inner diameter of these bottles, that of their neck and their height.
These bottles, used for the first time, were subjected beforehand to three cycles of washing and rinsing with hot water heated to about 50° C. and water of so-called PI grade before being dried.
Three oxaliplatin stock solutions at concentrations of 2 mg/ml, 5 mg/ml and 7 mg/ml, respectively, were prepared in the usual manner using PI grade water as solvent. No particular stabilizing agent was used.
Aliquots of these preparations were collected and then transferred under aseptic filling conditions into different bottles so as to reach the respective level corresponding to the heights indicated below. The bottles were then hermetically closed by seaming a cap.
For studies of stability under normal conditions, a first portion of these bottles were then placed in a first chamber thermostated at a temperature of 25° C. and at a relative humidity of 60%. These bottles were maintained upright and at rest without particular stirring for the periods indicated below.
Samples were collected at the periods indicated and then analyzed by high-performance liquid chromatography according to a conventional method in order to quantify the level of noncharacterized total impurities, expressed as a percentage by weight, relative to the quantities of oxaliplatin present in each of the samples.
This study was performed on groups of bottles having a useful capacity of 5 ml, 15 ml and 20 ml, respectively, filled as described above with aliquots of a stock solution at a concentration of 5 mg/ml, and then stored under the conditions mentioned above for a period of at least 10 months.
Samples were collected at periods of 1 month, and then 2.5 months, 4 months, 5.5 months, 7 months and 10 months, respectively, after bottling.
This study was performed as above, with the difference that the bottles were loaded with aliquots of a stock solution at a concentration of 7 mg/ml and samples were collected at the same periods.
This study was performed on three batches of bottles having the same useful capacity of 50 ml, filled as described above with aliquots of the same volume of a stock solution at a concentration of 2 mg/ml, and then stored under the conditions mentioned above for a period of 5 years. At the end of this period, samples were collected for analysis.

[3] = Stability study under accelerated conditions (40° C., 75% humidity); format: physicochemical; settings: aqueous solution in the selected bottles and filling conditions, humidity 75%
Description: Finally, it will be noted that the applicant has carried out a study of stability under accelerated conditions intended to anticipate stabilities on a scale of 3 years. To this effect, bottles were placed in a chamber thermostated at a temperature of 40° C. and in an atmosphere having a humidity of 75%. Samples were regularly collected and then analyzed.

[4] = 5 mg/ml, 5 ml bottle (ratio 0.26)
[5] = 5 mg/ml, 15 ml bottle (ratio 0.20)
[6] = 5 mg/ml, 20 ml bottle (ratio 0.17)
[7] = deduced from curve of FIG. 1 (4 months), c=5 mg/ml
[8] = deduced from curve of FIG. 2 (4 months), printed c=5 mg/ml

With `O=C1[O][Pt]2([NH][C@@H]3CCCC[C@H]3[NH]2)[O]C1=O` [oxaliplatin, Oxaliplatin] as the compound, how does the “degradation on preservation in flexible bags for infusion” value [1] read?
The value was “no degradation”.

And the “Level of impurity 5 years” value ([2]; batch 1)?
The value was 1.47 % by weight.

And the “Level of impurity 5 years” value ([2]; batch 2)?
The value was 1.56 % by weight.

And the “Level of impurity 5 years” value ([2]; batch 3)?
Its value is 1.55 % by weight.

What about the “Level of impurity 1 month” value ([2]; 5 mg/ml aqueous solution, bottle useful capacity 5 ml (surface area/volume ratio 0.26)) of the same compound?
Its value is 2.34 % by weight.

And the “Level of impurity 2.5 months” value [2, 4]?
Its value is 2.55 % by weight.

What about the “Level of impurity 4 months” value [2, 4] of the same compound?
The value was 2.89 % by weight.

And the “Level of impurity 5.5 months” value [2, 4]?
The value was 2.70 % by weight.

What about the “Level of impurity 7 months” value [2, 4] of the same compound?
The value was 3.19 % by weight.

What about the “Level of impurity 10 months” value [2, 4] of the same compound?
Its value is 3.64 % by weight.

And the “Level of impurity 1 month” value [2, 5]?
Its value is 1.15 % by weight.

And the “Level of impurity 2.5 months” value [2, 5]?
Its value is 1.16 % by weight.

And the “Level of impurity 4 months” value [2, 5]?
Its value is 1.23 % by weight.

What about the “Level of impurity 5.5 months” value [2, 5] of the same compound?
Its value is 1.50 % by weight.

What about the “Level of impurity 7 months” value [2, 5] of the same compound?
Its value is 1.56 % by weight.

And the “Level of impurity 10 months” value [2, 5]?
The value was 1.59 % by weight.

What about the “Level of impurity 1 month” value [2, 6] of the same compound?
Its value is 1.06 % by weight.

And the “Level of impurity 2.5 months” value [2, 6]?
The value was 1.11 % by weight.

What about the “Level of impurity 4 months” value [2, 6] of the same compound?
The value was 1.13 % by weight.

What about the “Level of impurity 5.5 months” value [2, 6] of the same compound?
Its value is 1.38 % by weight.

And the “Level of impurity 7 months” value [2, 6]?
The value was 1.42 % by weight.

And the “Level of impurity 10 months” value [2, 6]?
Its value is 1.45 % by weight.

What about the “Level of impurity 1 month” value ([2]; 7 mg/ml, 5 ml bottle) of the same compound?
The value was 1.87 % by weight.

What about the “Level of impurity 2.5 months” value ([2]; 7 mg/ml, 5 ml bottle) of the same compound?
Its value is 2.09 % by weight.

What about the “Level of impurity 4 months” value ([2]; 7 mg/ml, 5 ml bottle) of the same compound?
Its value is 2.33 % by weight.

And the “Level of impurity 5.5 months” value ([2]; 7 mg/ml, 5 ml bottle)?
Its value is 2.56 % by weight.

And the “Level of impurity 7 months” value ([2]; 7 mg/ml, 5 ml bottle)?
Its value is 2.75 % by weight.

And the “Level of impurity 10 months” value ([2]; 7 mg/ml, 5 ml bottle)?
Its value is 2.98 % by weight.

What about the “Level of impurity 1 month” value ([2]; 7 mg/ml, 15 ml bottle) of the same compound?
The value was 0.96 % by weight.

What about the “Level of impurity 2.5 months” value ([2]; 7 mg/ml, 15 ml bottle) of the same compound?
Its value is 1.03 % by weight.

What about the “Level of impurity 4 months” value ([2]; 7 mg/ml, 15 ml bottle) of the same compound?
The value was 1.12 % by weight.

What about the “Level of impurity 5.5 months” value ([2]; 7 mg/ml, 15 ml bottle) of the same compound?
The value was 1.19 % by weight.

And the “Level of impurity 7 months” value ([2]; 7 mg/ml, 15 ml bottle)?
Its value is 1.23 % by weight.

And the “Level of impurity 10 months” value ([2]; 7 mg/ml, 15 ml bottle)?
The value was 1.30 % by weight.

What about the “Level of impurity 1 month” value ([2]; 7 mg/ml, 20 ml bottle) of the same compound?
Its value is 0.70 % by weight.

What about the “Level of impurity 2.5 months” value ([2]; 7 mg/ml, 20 ml bottle) of the same compound?
The value was 0.81 % by weight.

What about the “Level of impurity 4 months” value ([2]; 7 mg/ml, 20 ml bottle) of the same compound?
The value was 0.97 % by weight.

And the “Level of impurity 5.5 months” value ([2]; 7 mg/ml, 20 ml bottle)?
The value was 1.04 % by weight.

And the “Level of impurity 7 months” value ([2]; 7 mg/ml, 20 ml bottle)?
Its value is 1.07 % by weight.

What about the “Level of impurity 10 months” value ([2]; 7 mg/ml, 20 ml bottle) of the same compound?
The value was 1.11 % by weight.

And the “R0, theoretical maximum surface area/volume ratio for which no impurity would be quantifiable” value [2, 7]?
The value was 0.10.

And the “constant A of R=R0+A.c.I” value [2, 7]?
The value was 0.01 ml/(mg.m).

What about the “R0, theoretical maximum surface area/volume ratio for which no impurity would be quantifiable” value [2, 8] of the same compound?
The value was 0.11.

What about the “constant A of R=R0+A.c.I” value [2, 8] of the same compound?
Its value is 0.009 ml/(mg.m).

And the “period of storage suggested by accelerated stability study” value [3]?
Its value is “at least 36 months”.
